Measured values published in ChEMBL document CHEMBL5528063, “Antitrypanosomal Chloronitrobenzamides” (J Med Chem, 2024).
The source made the active and inactive calls. The rule behind the calls is not given here.

Legend:
[1] = tested on: Trypanosoma brucei brucei; experiment: Antitrypanosomal activity against Trypanosoma brucei brucei 427 assessed as inhibition of parasite proliferation incubated for 48 hrs by CellTiter-Glo luminescent assay; format: functional, organism-based; conditions: Trypanosoma brucei, 427, 48 h
[2] = Cytotoxicity against human BJ cells assessed as inhibition of cell growth incubated for 72 hrs by CellTiter-Glo luminescence assay; format: toxicity, cell-based
[3] = Metabolic stability in […] mouse liver microsomes assessed as half-life at 20 uM measured after 2 hrs by UPLC-MS analysis; format: ADME, Microsome
[4] = Aqueous solubility of compound in 1-propanol at pH 7.4 incubated for 18 hrs by UV spectrum analysis; format: physicochemical; conditions: for solubility at 18 h: 1-propanol (aqueous, pH 7.4), pH 7.4
[5] = tested on: Trypanosoma brucei brucei; experiment: Antitrypanosomal activity against Trypanosoma brucei brucei 427 assessed as inhibition of parasite proliferation at 0.7 to 15000 nM incubated for 48 hrs by CellTiter-Glo luminescent assay; format: functional, organism-based; conditions: dose 0.7-15000 nM
[6] = tested on: Trypanosoma brucei brucei; experiment: Trypanocidal activity against Trypanosoma brucei brucei 427 assessed as reduction in parasitemia at 2.2 uM incubated for 4 days by clonal dilution based CellTiter-Glo assay; format: functional, organism-based; conditions: time 4.0 day

Row | SMILES | EC50 [1] | EC50 at 72 h [2] | other results
1 | O=C(Nc1cncc(-c2nc3ccccc3s2)c1)c1cnccc1Cl | > 5 µM | > 11 µM | 
2 | O=C(Nc1cccc(-c2nccs2)n1)c1cnccc1Cl | > 44 µM | > 18 µM | 
3 | Cc1ccc(-c2nc3ccccc3s2)cc1NC(=O)c1cc([N+](=O)[O-])ccc1F | 0.004 µM | > 17 µM | half-life at 20 µM [3]: 21 min; solubility at 18 h [4]: < 1.56 µM
4 | CS(=O)(=O)c1ccc(Cl)c(C(=O)Nc2cccc(-c3nc4ccccc4s3)c2)c1 | 4.56 µM | > 25 µM | 
5 | C[S+]([O-])c1ccc(Cl)c(C(=O)Nc2cccc(-c3nc4ccccc4s3)c2)c1 (stereo not given) | > 8 µM | > 25 µM | 
6 | Cc1ccc(-c2nc3ccccc3s2)cc1NC(=O)c1cnccc1F | > 10.6 µM | > 18 µM | 
7 | Cc1ccc(-c2nc3ccccc3s2)cc1NC(=O)c1cc(F)ccc1Cl | > 8 µM | > 15 µM | 
8 | COC(=O)c1ccc(Cl)c(C(=O)Nc2cc(-c3nc4ccccc4s3)ccc2C)c1 | > 16.1 µM | > 28 µM | 
9 | COc1ccncc1C(=O)Nc1cc(-c2nc3ccccc3s2)ccc1C | > 12 µM | > 21 µM | 
10 | Cc1ccc(-c2nc3ccccc3s2)cc1NC(=O)c1cc(C(F)(F)F)ccc1Cl | > 6 µM | > 15 µM | 
11 | Cc1ccc(-c2nc3ccccc3s2)cc1NC(=O)c1cc([N+](=O)[O-])ccc1O | > 7 µM | > 14 µM | 
12 | Cc1ccc(-c2nc3ccccc3s2)cc1NC(=O)c1cnccc1O | > 8 µM | > 14 µM | 
13 | O=C(Nc1cccc(-c2ncco2)c1)c1cc([N+](=O)[O-])ccc1Cl | > 8 µM | > 18 µM | 
14 | Cc1ccc(-c2nnn[nH]2)nc1NC(=O)c1cnccc1Cl |  | > 18 µM | Activity [5]: inactive
15 | O=C(Nc1cccc(-c2ncc[nH]2)c1)c1cc([N+](=O)[O-])ccc1Cl | > 8 µM | > 18 µM | 
16 | Cc1ccc(-c2nc3ccccc3s2)cc1NC(=O)c1cnccc1Cl | 0.044 µM | > 25 µM | half-life at 20 µM [3]: 12 min; solubility at 18 h [4]: < 1 µM
17 | CC(=O)Nc1ccc(Cl)c(C(=O)Nc2cc(-c3nc4ccccc4s3)ccc2C)c1 | > 7 µM | > 15 µM | 
18 | O=C(Nc1cccc(-c2nc3ccccc3s2)n1)c1cnccc1Cl | 0.09 µM | > 15 µM | half-life at 20 µM [3]: 2 min; solubility at 18 h [4]: < 1.56 µM
19 | Cc1ccc(-c2nc3ccccc3s2)cc1NC(=O)c1cc([N+](=O)[O-])ccc1Cl | 0.039 µM | > 25 µM | half-life at 20 µM [3]: > 240 min; solubility ([4]; buffer, pH 7.4, 18 h): Insoluble(Bld)
20 | O=C(NC1CCCC(c2nc3ccccc3s2)C1)c1cc([N+](=O)[O-])ccc1Cl (stereo not given) | > 7 µM | > 15 µM | 
21 | Cc1ccc(-c2nc3ncccc3o2)cc1NC(=O)c1cc([N+](=O)[O-])ccc1Cl | 0.55 µM | > 25 µM | half-life at 20 µM [3]: 1.2 min; solubility at 18 h [4]: < 1.56 µM

Row | SMILES | EC50 [1] | EC50 at 72 h [2] | other results
22 | Cc1nc(-c2cccc(NC(=O)c3cc([N+](=O)[O-])ccc3Cl)c2)sc1C | 2.22 µM | > 17 µM | 
23 | Cc1ccc(-c2nc3ccccc3s2)cc1NC(=O)c1cc(N)ccc1Cl | > 5 µM | > 15 µM | 
24 | Cc1ccc(-c2nc3ccccc3s2)cc1NC(=O)c1cc(C(N)=O)ccc1Cl | > 11 µM | > 22 µM | 
25 | Cc1ccc(-c2nc3ccccc3s2)cc1NC(=O)c1cc(NC(=O)OC(C)(C)C)ccc1Cl | > 8 µM | > 15 µM | 
26 | COc1ccc([N+](=O)[O-])cc1C(=O)Nc1cc(-c2nc3ccccc3s2)ccc1C | > 1 µM | > 2 µM | 
27 | O=C(Nc1cncc(-c2nc3ccccc3s2)c1)c1cc([N+](=O)[O-])ccc1Cl | > 8 µM | > 15 µM | 
28 | O=C(Nc1cccc(-c2nc3ccccc3s2)n1)c1cc([N+](=O)[O-])ccc1Cl | > 7 µM | > 15 µM | 
29 | O=C(Nc1ccc(Cl)c(-c2nc3ncccc3o2)c1)c1cc([N+](=O)[O-])ccc1Cl | > 6 µM | > 26 µM | 
30 | O=C(Nc1cccc(-c2nccs2)c1)c1cc([N+](=O)[O-])ccc1Cl | > 7 µM | > 18 µM | 
31 | O=C(Nc1cc(-c2nc3ccccc3s2)ccc1Br)c1cc([N+](=O)[O-])ccc1Cl | 0.22 µM | > 20 µM | half-life at 20 µM [3]: 1.7 min; solubility at 18 h [4]: < 1.56 µM
32 | Cc1ccc(-c2nnn[nH]2)cc1NC(=O)c1cc([N+](=O)[O-])ccc1Cl | > 8 µM | > 18 µM | 
33 | Cc1ccc(-c2nc3ccccc3s2)cc1NC(=O)c1cc(C#N)ccc1Cl | > 6 µM | > 15 µM | 
34 | Cc1ccc(-c2nc3ccccc3s2)cc1NC(=O)c1cnccc1C(F)(F)F | > 7 µM | > 14 µM | 
35 | CSc1ccc(Cl)c(C(=O)Nc2cccc(-c3nc4ccccc4s3)c2)c1 | > 33 µM | > 25 µM | 
36 | N=C(N)c1ccc(OCCCCCOc2ccc(C(=N)N)cc2)cc1 |  |  | Activity [6]: Active
37 | Cc1ccc(-c2nc3ccccc3s2)cc1NC(=O)c1cc([N+](=O)[O-])ccc1C(F)(F)F | > 7 µM | > 15 µM | 
38 | O=C(Nc1cccc(-c2nc3ccccc3s2)c1)c1cc([N+](=O)[O-])ccc1Cl | 0.1 µM | > 15 µM | half-life at 20 µM [3]: 11 min; solubility at 18 h [4]: < 1 µM
39 | Cc1ccc(-c2nc3ccccc3s2)cc1NC(=O)c1cc([N+](=O)[O-])ccc1C#N | > 9 µM | > 17 µM | 
40 | Cc1ccc(-c2nc3ccccc3s2)cc1NC(=O)c1cnccc1C#N | > 7 µM | > 13 µM | 
41 | Cc1ccc(-c2nc3ccccc3s2)cc1NC(=O)c1cc(C(=O)O)ccc1Cl | > 5 µM | > 15 µM | 
